According to US12378261B2, “One-step, fast, 18F-19F isotopic exchange radiolabeling of difluoro-dioxaborinins and use of such compounds in treatment” (CORNELL UNIVERSITY, priority 2018, dated 2025):

Legend:
sentinel nodes = conditions: non-targeted fluorescent contrasts, literature; cited from earlier work
[1] = 19F NMR solvolytic stability of difluoro-dioxaborinins in water/DMSO; assay type: physicochemical; conditions: for Fold increase in stability (90% → 10% H2O): 10% water/DMSO vs 90% water/DMSO; for times more resistant to solvolysis than DK-1: 50 M H2O
Method: Radioactive TLC and […]/^19F NMR studies were used to determine the solvolytic stability of difluoro-dioxaborinins.
(§1) Some difluoro-dioxaborinins are insoluble in water; therefore, solvolytic studies on these compounds were determined in 10% H2O/90% DMSO (5.55 M H2O, deionized). To relate the effect of water concentration to solvolysis, solvolytic studies on all water-soluble difluoro-dioxaborinins (DK-1, DK-2, DK-3, DK-6 and DK-15) were performed twice: once in 10% H2O/90% DMSO (5.55 M H2O) (FIG. 2A), and again in 90% H2O/10% DMSO (50 M H2O) (FIG. 2B). Studies performed in 50 M H2O reflect physiologically appropriate conditions, and allow comparison to literature aryl/alkyl trifluoroborate and dipyrromethene solvolytic stability measurements.^11, 14 Characterization in solutions with reduced water content, 5.55 M H2O, allows comparison of solvolytic rate constants to those of less-soluble difluoro-dioxaborinins. Difluorodioxaborinins solvolysis is not observed in pure (100%) DMSO.
The coefficient of determination (R^2) in all ^19F NMR solvolysis data closely follows single, 2 parameter exponential decay regression (f=a*exp(−k*x), R2 >0.99 in 88% of experiments).

[2] = Optical properties (absorbance, fluorescence emission, quantum yield); assay type: physicochemical; conditions: for Quantum yield: Methanol
[3] = Solubility in water (50 M H2O); assay type: physicochemical; conditions: 50 M H2O (90% H2O/10% DMSO)
Method: as §1
Solvolysis is promoted by extending difluorodioxaborinin π-conjugation using moderately electron poor or electron-neutral substituents (DK-13 and DK-14). To evaluate the effect of extending the difluoro-dioxaborinin 4,5,6 π-system on solvolysis, compounds that bear extended π-conjugation through the difluoro-dioxaborinin moiety (positions 4, 5, and 6) were synthesized. ^19F NMR solvolytic measurements were performed only in 5.55 M H2O, as DK-13 and DK-14 are insoluble in 50 M H2O.

HeLa = experiment: Inhibition of cell proliferation (IC50, MTS); assay type: cell-based
Method: (§2) As shown in FIGS. 11A-11E, cell viability as a function of Curcumin-BF2 concentration was evaluated for each of the cell lines in Example 5, showing the compounds of the present technology are effective in inhibiting cancer cell proliferation.

MCF-7 = experiment: Inhibition of cell proliferation (IC50, MTS); assay type: cell-based
Method: as §2

A549 = experiment: Inhibition of cell proliferation (IC50, MTS); assay type: cell-based
Method: as §2

MDA-MB-231 = experiment: Inhibition of cell proliferation (IC50, MTS); assay type: cell-based
Method: as §2

HCT116 = experiment: Inhibition of cell proliferation (IC50, MTS); assay type: cell-based
Method: as §2

[4] = system: sentinel (popliteal) lymph node; experiment: Sentinel lymph node fluorescence imaging (IVIS) and histology in mouse; assay type: in vivo
Method: FIGS. 3A-F: Sentinel lymph node imaging using [^18F]-6F-Cur-BF2 according to the working examples. […] Distal lymph nodes (lumbar, iliac lymph nodes^30) are not observed. […] A 200 μCi dose of [^18F]-6F-Cur-BF2 and Magnevist (MRI contrast agent) were injected into the right rear paw of […]. The injection site (bottom arrow) and sentinel lymph node (popliteal, upper arrows) are visible at 5 min. FIGS. 3D-3F show popliteal (sentinel) lymph node imaging 2 hours post injection into the back paw with a Pre-Clinical IVIS. Optical/Computed Tomography In Vivo Imaging System (Excitation filter centered at 430 nm and emission filter centered at 520 nm. Exposure time=1 s). […] White arrows in FIGS. 3D-3F indicate the lymph nodes.
FIG. 5 provides the histology of the collected lymph node from the mouse in FIG. 4A. The mouse lymph node was collected at 2 hours post injection into the right, rear footpad. The collected lymph node was frozen with OCT Gel and cut with a thickness of […]. The slice was, imaged with fluorescence microscope at the channel of 6F-Cur-BF2.
Applicant attempted sentinel lymph node imaging with [^18F]-6FCur-BF2 by fluorescence with 430 nm excitation and 520 nm emission filters. […] The collected lymph node is confirmed in histology.

Structure (SMILES) | fold slower solvolysis (more stable) than DK-1 ([1]; 5.55 M H2O) | Abs [2] [nm] | Em [2] [nm] | Extinction Coefficient [2] | Stokes Shift [2] [nm] | Quantum yield [2] [%] | solubility in water [3] | Fold increase in stability (90% → 10% H2O) [1] | further results
CC1(C)C(/C=C/C=C/C=C/C=C2\N(CCCCS(=O)(=O)O)c3ccc4ccccc4c3C2(C)C)=[N+](CCCCS(=O)(=O)[O-])c2ccc3ccccc3c21 [indocyanine green] |  |  |  |  |  |  |  |  | behaviour in sentinel node mapping (sentinel nodes): travel through sentinel nodes to delineate multiple non-sentinel nodes
CC1=C2CCCCC2=[O+][B-](F)(F)O1 [DK-15] |  | 303 | 307 | 12,000 cm^−1M^−1 | 4 |  | water-soluble | 5.0 | times more resistant to solvolysis than DK-1 [1]: 2.5
CCOC(=O)CCC1=C(C)O[B-](F)(F)[O+]=C1C [DK-6] |  | 301 | 307 | 12,600 cm^−1M^−1 | 6 |  | water-soluble | 4.7 | times more resistant to solvolysis than DK-1 [1]: 1.9
COc1cc(/C=C/C(=O)CC(=O)/C=C/c2ccc(O)c(OC)c2)ccc1O [Curcumin, reference compound] |  | 434 | 535 | 56,500 cm^−1M^−1 | 101 | 2.4 |  |  | IC50 (HeLa; Homo sapiens, 24 h): 16 ± 3 µM; IC50 (HeLa; Homo sapiens, 48 h): 19 ± 6 µM; IC50 (MCF-7; Homo sapiens, MCF7, MCF-7, 24 h): 27 ± 8 µM; IC50 (MCF-7; Homo sapiens, MCF7, MCF-7, 48 h): 35 ± 3 µM; IC50 (A549; Homo sapiens, A549, 24 h): 50 ± 4 µM; IC50 (A549; Homo sapiens, A549, 48 h): 25 ± 1 µM; IC50 (MDA-MB-231; Homo sapiens, MDA-MB-231, 24 h): 32 ± 13 µM; IC50 (MDA-MB-231; Homo sapiens, MDA-MB-231, 48 h): 26 ± 6 µM; IC50 (HCT116; Homo sapiens, HCT-116, HCT116, 24 h): 27 ± 5 µM; IC50 (HCT116; Homo sapiens, HCT-116, HCT116, 48 h): 16 ± 2 µM
CCN(CC)c1ccc(C(=C2C=CC(=[N+](CC)CC)C=C2)c2cc(S(=O)(=O)[O-])ccc2S(=O)(=O)[O-])cc1.[Na+] [lymphazurin, isosulfan blue] |  |  |  |  |  |  |  |  | behaviour in sentinel node mapping (sentinel nodes): travel through sentinel nodes to delineate multiple non-sentinel nodes
CCC1=C(C)O[B-](F)(F)[O+]=C1C [DK-3] |  | 303 | 306 | 12,000 cm^−1M^−1 | 3 |  | water-soluble | 3.5 | times more resistant to solvolysis than DK-1 [1]: 5.6

The next lines start with results.

fold slower solvolysis (more stable) than DK-1 ([1]; 5.55 M H2O) | Abs [2] [nm] | Em [2] [nm] | Extinction Coefficient [2] | Stokes Shift [2] [nm] | Quantum yield [2] [%] | solubility in water [3] | Fold increase in stability (90% → 10% H2O) [1] | Structure (SMILES) | further results
1.4 | 363 | 413 | 38,000 cm^−1M^−1 | 50 | 11.2 | insoluble |  | F[B-]1(F)OC(c2ccccc2)=CC(c2ccccc2)=[O+]1 [DK-13] | times more rapid solvolysis than DK-2 ([1]; 5.55 M H2O): 5.0
 | 303 | 307 | 12,200 cm^−1M^−1 | 4 |  | water-soluble | 3.2 | CC1=[O+][B-](F)(F)OC(C)=C1C [DK-2] | times more resistant to solvolysis than DK-1 [1]: 6.2
15 | 400 | 439 | 62,000 cm^−1M^−1 | 39 | 67.3 | insoluble |  | COc1ccc(C2=CC(c3ccc(C(C)(C)C)cc3)=[O+][B-](F)(F)O2)cc1 [DK-16] | fold slower solvolysis than DK-2 ([1]; 5.55 M H2O): 2.2
 | 500 | 571 | 73,000 cm^−1M^−1 |  |  | insoluble |  | COc1cc(/C=C/C2=CC(/C=C/c3ccc(O)c(OC)c3)=[O+][B-](F)(F)O2)ccc1O [Cur-BF2] | IC50 (HeLa; 24 h): 5.4 ± 0.4 µM; IC50 (HeLa; 48 h): 4.2 ± 0.2 µM; IC50 (MCF-7; MCF-7, 24 h): 10 ± 4 µM; IC50 (MCF-7; MCF-7, 48 h): 4.8 ± 0.2 µM; IC50 (A549; A549, 24 h): 27 ± 3 µM; IC50 (A549; A549, 48 h): 5.5 ± 0.3 µM; IC50 (MDA-MB-231; MDA-MB-231, 24 h): 11 ± 1 µM; IC50 (MDA-MB-231; MDA-MB-231, 48 h): 6 ± 1 µM; IC50 (HCT116; HCT116, 24 h): 3.31 ± 0.04 µM; IC50 (HCT116; HCT116, 48 h): 4.3 ± 0.2 µM
1.6 | 430 | 512 | 50,800 cm^−1M^−1 | 82 | 3.0 |  |  | COc1cc(/C=C/C2=CC(/C=C/c3ccc(OC(=O)c4c(F)cc(F)cc4F)c(OC)c3)=[O+][B-](F)(F)O2)ccc1OC(=O)c1c(F)cc(F)cc1F [6F-Cur-BF2] | fold more rapid solvolysis than Cur-BF2 ([1]; 5.55 M H2O): 33; fluorescence in collected lymph node (histology) ([4]; mouse lymph node collected 2 hours post injection): observed in the lymph node; sentinel node visualization by fluorescence through the skin ([4]; mouse, 430 nm excitation, 520 nm emission filters, 2 hours post injection): the sentinel node is difficult to visualize through the skin
16 | 408 | 438 | 63,600 cm^−1M^−1 | 30 | 65.8 | insoluble |  | COc1ccc(C2=CC(c3ccc(OC)cc3)=[O+][B-](F)(F)O2)cc1 [DK-17] | fold slower solvolysis than DK-2 ([1]; 5.55 M H2O): 2.3
 | 325 | 328 | 19,800 cm^−1M^−1 | 3 |  | insoluble |  | CC1=CC(c2ccccc2)=[O+][B-](F)(F)O1 [DK-14] | fold more rapid solvolysis than DK-1 ([1]; 5.55 M H2O): 1.7
 | 279 | 305 | 9,180 cm^−1M^−1 | 26 |  | water-soluble | ~2.8 | CC1=CC(C)=[O+][B-](F)(F)O1 [DK-1] | solvolysis rate constant, k ([1]; 50 M H2O (90% water, 10% DMSO)): 0.254 ± 0.002 h⁻¹; solvolysis in absence of water ([1]; 100% DMSO): not observed; fraction decomposed ([1]; […] (one fluoride-18 half-life), from rate constant at 50 M H2O): 37%
2.1 | 434 | 509 | 54,000 cm^−1M^−1 | 75 | 3.1 |  |  | COc1cc(/C=C/C2=CC(/C=C/c3ccc(OC(=O)CCN4C(=O)C=CC4=O)c(OC)c3)=[O+][B-](F)(F)O2)ccc1OC(=O)CCN1C(=O)C=CC1=O [Cur-BF2-2Mal] | fold more rapid solvolysis than Cur-BF2 ([1]; 5.55 M H2O): 24
